pIC50: −log10 of the molar value.
Legend:
Assay type in all cases: biochemical
[1] = molecular target: T1, MMP-16 (Homo sapiens, UniProt P51512); assay: In vitro MMP-16 inhibition test; details: human MMP-16
T1 construct: purchased R&D Systems 1785-MP
Method in brief: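 Furin-activated recombinant MMP-16 (e.g. 1 nM final) with compound (e.g. 1 nM–30 μM, DMSO) in 50 mM Tris/HCl pH 7.5, 10 mM CaCl2, 150 mM NaCl, 0.05% Brij-35. Reaction started with quenched Mca-Lys-Pro-Leu-Gly-Leu-Dpa(Dnp)-Ala-Arg-NH2 (e.g. 5 μM) and read by fluorescence (ex 320/em 410 nm), e.g. over 120 min at 32 °C. IC50 taken at 50% signal.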

[2] = molecular target: T2, MMP-10 (Homo sapiens, UniProt P09238); assay: In vitro MMP-10 inhibition test; details: human MMP-10
T2 construct: purchased R&D Systems 910-MP
Method in brief: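 APMA-activated recombinant MMP-10 (e.g. 2 nM final) with compound in Tris/HCl pH 7.5, CaCl2, NaCl, Brij-35 buffer; reaction started with quenched Mca/Dnp peptide substrate (e.g. 10 μM final). Fluorescence (ex 320/em 410 nm) followed e.g. 120 min at 32 °C; IC50 at 50% signal.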

[3] = molecular target: T3, MMP-13 (Homo sapiens, UniProt P45452); assay: In vitro MMP-13 inhibition test; details: human MMP-13
T3 construct: purchased R&D Systems 511-MP
Method in brief: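 APMA-activated recombinant enzyme (e.g. 0.1 nM final) was tested with compounds (e.g. 1 nM–30 µM, DMSO) in 50 mM Tris/HCl pH 7.5, 10 mM CaCl2, 150 mM NaCl, 0.05% Brij-35. Mca-PLGL-Dpa(Dnp)-AR-NH2 was the substrate (e.g. 10 µM). Fluorescence (ex 320/em 410 nm) was followed e.g. 120 min at 32 °C, and IC50 was read at 50% signal.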

[4] = molecular target: T4, MMP-1 (Homo sapiens, UniProt P03956); assay: In vitro MMP-1 inhibition test; details: human MMP-1
T4 construct: purchased R&D Systems 901-MP
T4 sequence (P03956 100-469): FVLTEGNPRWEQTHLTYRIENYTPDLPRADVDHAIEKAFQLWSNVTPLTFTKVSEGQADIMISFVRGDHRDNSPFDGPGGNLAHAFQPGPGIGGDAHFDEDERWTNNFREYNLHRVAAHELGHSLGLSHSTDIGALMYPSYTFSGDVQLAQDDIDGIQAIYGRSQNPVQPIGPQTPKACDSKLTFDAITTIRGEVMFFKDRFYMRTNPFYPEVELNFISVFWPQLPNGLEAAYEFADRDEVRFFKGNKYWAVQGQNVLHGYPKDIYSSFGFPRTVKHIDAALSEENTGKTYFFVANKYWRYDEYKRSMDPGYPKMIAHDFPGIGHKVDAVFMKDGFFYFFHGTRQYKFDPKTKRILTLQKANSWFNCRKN
Method in brief: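 Recombinant enzyme was APMA-activated and used at e.g. 2 nM final in 50 mM Tris/HCl pH 7.5, 10 mM CaCl2, 150 mM NaCl, 0.05% Brij-35. Reaction was started with quenched Mca-Pro-Leu-Gly-Leu-Dpa(Dnp)-Ala-Arg-NH2 (e.g. 10 μM final), and fluorescence (ex 320/em 410 nm) was followed e.g. over 120 min at 32 °C. IC50 is the concentration giving 50% signal.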

T2 sequence (P09238 99-476): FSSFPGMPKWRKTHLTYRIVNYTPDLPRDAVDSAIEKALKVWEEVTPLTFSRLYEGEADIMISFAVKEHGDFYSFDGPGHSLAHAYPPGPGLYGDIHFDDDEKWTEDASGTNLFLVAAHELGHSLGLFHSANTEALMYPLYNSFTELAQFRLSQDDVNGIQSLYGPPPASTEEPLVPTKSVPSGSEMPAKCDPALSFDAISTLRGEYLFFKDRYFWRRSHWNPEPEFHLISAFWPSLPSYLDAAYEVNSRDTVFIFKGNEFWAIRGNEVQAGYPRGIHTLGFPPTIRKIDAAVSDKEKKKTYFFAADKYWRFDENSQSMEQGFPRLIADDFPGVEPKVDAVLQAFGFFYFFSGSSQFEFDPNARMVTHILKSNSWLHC
T1 sequence (P51512 120-564 limits assumed): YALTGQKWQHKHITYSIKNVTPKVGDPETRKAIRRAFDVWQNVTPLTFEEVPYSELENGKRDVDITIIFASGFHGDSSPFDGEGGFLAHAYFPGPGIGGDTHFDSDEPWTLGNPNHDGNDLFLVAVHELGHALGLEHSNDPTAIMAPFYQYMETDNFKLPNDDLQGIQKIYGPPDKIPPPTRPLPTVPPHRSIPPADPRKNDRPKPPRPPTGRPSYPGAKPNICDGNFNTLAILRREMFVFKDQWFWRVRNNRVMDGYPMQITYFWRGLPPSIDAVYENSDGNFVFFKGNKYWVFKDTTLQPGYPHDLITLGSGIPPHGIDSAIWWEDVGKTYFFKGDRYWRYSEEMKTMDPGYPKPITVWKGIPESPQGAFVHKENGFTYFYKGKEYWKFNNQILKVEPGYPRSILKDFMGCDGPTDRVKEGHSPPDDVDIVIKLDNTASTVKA

- pIC50 [1]: 5.52
- pIC50 [2]: 6.47
- pIC50 [3]: 6.18
- pIC50 [4]: < 4.40
Compound: O=C(O)[C@@H]1[C@@H](Cn2nnc3ccc(C(F)(F)F)cc3c2=O)CC[C@H]1C(=O)c1cc2cc(OCCc3ccccc3)ccc2o1 (single isomer, unassigned; enantiomer 2) [Example 159, (+)-(1RS,2SR,5RS)-2-{[4-Oxo-6-(trifluoromethyl)-1,2,3-benzotriazin-3(4H)-yl]methyl}-5-{[5-(2-phenylethoxy)-1-benzofur-2-yl]carbonyl}cyclopentanecarboxylic acid (enantiomer 2)]

Source: US20170121315A1, “HETEROBICYCLICALLY SUBSTITUTED 4-OXOBUTANE ACID DERIVATIVES AND USE THEREOF” (priority 2014, published 2017)
